Assay in all cases: Agar plate test with treated textile pieces (inhibition zone)
Holding throughout (assay type): cell-based

Assay [1] concerns Trichophyton mentagrophytes. Conditions: 30°C; for zone of inhibition at 100 µg/mL: azole 0,1 g/l in liquor with 3 g/l fabric softener; for zone of inhibition at 200 µg/mL: azole 0,2 g/l in liquor with 3 g/l fabric softener; for zone of inhibition at 1000 µg/mL: azole 1 g/l in liquor with 3 g/l fabric softener. The procedure: (§1) Zur Prüfung der antimikrobiellen Wirksamkeit wurde die erfindungsgemäße Ausrüstung der Textilien wie folgt vorgenommen: • 2 x 2 cm große Textilstücke aus Baumwollköper (BW), Wolle (WO) und Nylon (NY) wurden in einer Behandlungsflotte von 20°C 10 Minuten lang bewegt und anschließend bei Raumtemperatur getrocknet. Der Behandlungsflotte waren verschiedene Azolverbindungen in unterschiedlicher Konzentration (s. Tabelle) und 3 g pro 1 Waschflotte eines handelsüblichen Wäscheweichspülmittels mit einem Gehalt an 5 Gew.-% Dimethyl-ditalgalkyl-ammoniumchlorid als textilweichmachender quartärer Ammoniumverbindung zugesetzt. Die Textilproben wurden auf mit unterschiedlichen Testkeimen beimpfte Agarplatten aufgelegt, bis zum Eintritt eines vollen Wachstums bei 30°C bebrütet und dann die antimikrobiellen Effekte abgelesen. Dabei bedeuten: • + = volles Wachstum • 0 = kein Hemmhof, kein Wachstum auf den Läppchen • Zahl = Hemmhof in mm um das Gewebe • (Zahl) = Größe des Hemmhofes mit diffuser Begrenzung in mm.
Zum Vergleich wurde die antimikrobielle Wirkung eines azolverbindungsfreien Wäschenachbehandlungsmittels geprüft. Die Ergebnisse sind in der folgenden Tabelle aufgeführt:
(§2) In einer weiteren Versuchsreihe wurden andere Azolverbindungen bei einer Anwendungskonzentration von 1 g/I Behandlungsflotte gemeinsam mit dem Wäschebehandlungsmittel der Beispiele 1 bis 7 (Konzentration 3 g/I Behandlungsflotte) eingesetzt. Auch hier wurde ein Vergleichsversuch ohne Azolverbindung durchgeführt.

Assay [2] has as its system Microsporum gypseum. Conditions: Nannizzia gypsea, 30°C, read-out: Hemmhof in mm um das Gewebe; for zone of inhibition at 100 µg/mL: azole 0,1 g/l in liquor with 3 g/l fabric softener; for zone of inhibition at 200 µg/mL: azole 0,2 g/l in liquor with 3 g/l fabric softener. The procedure: as §1
(§3) Zum Vergleich wurde die antimikrobielle Wirkung eines azolverbindungsfreien Wäschenachbehandlungsmittels geprüft. Die Ergebnisse sind in der folgenden Tabelle aufgeführt: […]

The subject of assay [3] is Trichophyton rubrum. To be noted: 30°C, read-out: Hemmhof in mm um das Gewebe; for zone of inhibition at 100 µg/mL: azole 0,1 g/l in liquor with 3 g/l fabric softener; for zone of inhibition at 200 µg/mL: azole 0,2 g/l in liquor with 3 g/l fabric softener. On the procedure: as §1, §3
In assay [4] the test system is Epidermophyton floccosum. Conditions: azole 1 g/l in liquor with 3 g/l fabric softener, 30°C. On the procedure: as §1, §2
Setting [5] is: BW (Baumwollköper), read-out: Hemmhof in mm um das Gewebe.
[6] abbreviates: NY (Nylon), read-out: Hemmhof in mm um das Gewebe.
Where [7] appears, read: WO (Wolle), read-out: Hemmhof in mm um das Gewebe.
Where [8] appears, read: value in brackets, BW (Baumwollköper), read-out: Größe des Hemmhofes mit diffuser Begrenzung in mm.
Setting [9] is: value in brackets, WO (Wolle), read-out: Größe des Hemmhofes mit diffuser Begrenzung in mm.
The mark [10] stands for this setting: value in brackets, NY (Nylon), read-out: Größe des Hemmhofes mit diffuser Begrenzung in mm.

Where two headings read alike, the source gives them in different places.

As for `O=[N+]([O-])CC(c1c(Cl)cccc1Cl)n1cncn1` (centres unmarked) [compound 045], the zone of inhibition at 100 µg/mL in assay [1] (setting [5]) amounted to 11 mm; in assay [1] (setting [6]) it was 8 mm; in assay [1] (setting [7]) it was 8 mm; in assay [2] (BW (Baumwollköper)), 10 mm; in assay [2] (NY (Nylon)) it was 7 mm; in assay [2] (WO (Wolle)), 10 mm. Moreover, the figures for the zone of inhibition at 100 µg/mL in assay [3] (BW (Baumwollköper)), in assay [3] (NY (Nylon)) and in assay [3] (WO (Wolle)) were 12 mm, 7 mm and 10 mm, respectively. Also, the zone of inhibition at 200 µg/mL in assay [1] (setting [5]) is 16 mm; in assay [1] (setting [6]) it was 12 mm; in assay [1] (setting [7]), 11 mm; in assay [2] (BW (Baumwollköper)), 20 mm; in assay [2] (NY (Nylon)), 14 mm; in assay [2] (WO (Wolle)), 12 mm. Further, the zone of inhibition at 200 µg/mL in assay [3] (BW (Baumwollköper)) was 25 mm; in assay [3] (NY (Nylon)) it was 7 mm; in assay [3] (WO (Wolle)) it was 18 mm.
With `CC(C)(C)C(=O)C(Oc1ccc(Cl)cc1)n1ccnc1` (centres unmarked) [compound 003], the zone of inhibition at 1000 µg/mL in assay [1] (setting [5]) amounted to 5 mm; in assay [1] (setting [6]), 0.5 mm; in assay [1] (setting [7]), 9 mm; in assay [1] (setting [8]) it was 10 mm; in assay [1] (setting [9]), 16 mm; in assay [4] (setting [5]) it was 3 mm. The zone of inhibition at 1000 µg/mL was determined as 10 mm in assay [4] (setting [7]), 9 mm in assay [4] (setting [8]), 0.5 mm in assay [4] (setting [10]) and 17 mm in assay [4] (setting [9]).
For the compound `Cc1ccccc1C1(n2ccnc2)c2ccccc2-c2ccccc21` [compound 009], the zone of inhibition at 1000 µg/mL in assay [1] (setting [5]) stood at 7 mm; in assay [1] (setting [6]) it was 10 mm; in assay [1] (setting [7]) it was 9 mm; in assay [1] (setting [8]), 10 mm; in assay [1] (setting [10]), 14 mm; in assay [1] (setting [9]), 14 mm. Moreover, the zone of inhibition at 1000 µg/mL amounted to 10 mm in assay [4] (setting [5]); 5 mm in assay [4] (setting [6]); 11 mm in assay [4] (setting [7]); 13 mm in assay [4] (setting [8]); 10 mm in assay [4] (setting [10]); 17 mm in assay [4] (setting [9]).
`O=[N+]([O-])CC(c1c(Cl)cccc1Cl)n1cnc(Cl)n1` (centres unmarked) [compound 046]: the zone of inhibition at 100 µg/mL in assay [1] (setting [5]) was 7 mm; in assay [1] (setting [6]), 5 mm; in assay [1] (setting [7]), 13 mm; in assay [2] (BW (Baumwollköper)), 14 mm; in assay [2] (NY (Nylon)), 8 mm; in assay [2] (WO (Wolle)) it was 8 mm. Further, the zone of inhibition at 100 µg/mL in assay [3] (BW (Baumwollköper)) stood at 9 mm; in assay [3] (NY (Nylon)), 4 mm; in assay [3] (WO (Wolle)), 13 mm. Besides, the zone of inhibition at 200 µg/mL is 13 mm in assay [1] (setting [5]); 10 mm in assay [1] (setting [6]); 13 mm in assay [1] (setting [7]); 16 mm in assay [2] (BW (Baumwollköper)); 10 mm in assay [2] (NY (Nylon)); 10 mm in assay [2] (WO (Wolle)). The figures for the zone of inhibition at 200 µg/mL in assay [3] (BW (Baumwollköper)), in assay [3] (NY (Nylon)) and in assay [3] (WO (Wolle)) were 12 mm, 7 mm and 7 mm, respectively.
Consider `CC(C)(C)C(c1ccccc1)(c1ccccc1)n1ccnc1` [compound 065], for which the zone of inhibition at 100 µg/mL in assay [1] (setting [5]) was 26 mm; in assay [1] (setting [6]), 25 mm; in assay [1] (setting [7]) it was 25 mm; in assay [2] (BW (Baumwollköper)), 26 mm; in assay [2] (NY (Nylon)), 14 mm; in assay [2] (WO (Wolle)), 21 mm. The values for the zone of inhibition at 100 µg/mL in assay [3] (BW (Baumwollköper)), in assay [3] (NY (Nylon)) and in assay [3] (WO (Wolle)) were 25 mm, 18 mm and 23 mm, respectively. The zone of inhibition at 200 µg/mL in assay [1] (setting [5]) was 28 mm; in assay [1] (setting [6]) it was 26 mm; in assay [1] (setting [7]), 28 mm; in assay [2] (BW (Baumwollköper)) it was 28 mm; in assay [2] (NY (Nylon)), 25 mm; in assay [2] (WO (Wolle)) it was 25 mm. Further, the figures for the zone of inhibition at 200 µg/mL in assay [3] (BW (Baumwollköper)), in assay [3] (NY (Nylon)) and in assay [3] (WO (Wolle)) were 29 mm, 23 mm and 28 mm, respectively.
Regarding `C#CC(c1ccccc1)(c1ccccc1)n1ccnc1` [compound 001], the zone of inhibition at 1000 µg/mL was 15 mm in assay [1] (setting [5]); 9 mm in assay [1] (setting [6]); 17 mm in assay [1] (setting [7]); 20 mm in assay [1] (setting [8]); 12 mm in assay [1] (setting [10]); 20 mm in assay [1] (setting [9]). Also, the zone of inhibition at 1000 µg/mL in assay [4] (setting [5]) amounted to 21 mm; in assay [4] (setting [6]), 7 mm; in assay [4] (setting [7]), 21 mm; in assay [4] (setting [10]), 12 mm.

Source of the values: patent EP0056152B1, “Process for the after-treatment of linen” (Henkel Kommanditgesellschaft auf Aktien, priority 1981, dated 1982).
